Experimental data published in patent US8497381B2, “Antagonists of prostaglandin D2 receptors” (Panmira Pharmaceuticals, LLC, priority 2008, dated 2013).

Molecular target: T1, human DP2 receptor (Homo sapiens, UniProt Q9Y5Y4)
T1 construct: expressed in transfected cells
T1 sequence (Q9Y5Y4 1-395): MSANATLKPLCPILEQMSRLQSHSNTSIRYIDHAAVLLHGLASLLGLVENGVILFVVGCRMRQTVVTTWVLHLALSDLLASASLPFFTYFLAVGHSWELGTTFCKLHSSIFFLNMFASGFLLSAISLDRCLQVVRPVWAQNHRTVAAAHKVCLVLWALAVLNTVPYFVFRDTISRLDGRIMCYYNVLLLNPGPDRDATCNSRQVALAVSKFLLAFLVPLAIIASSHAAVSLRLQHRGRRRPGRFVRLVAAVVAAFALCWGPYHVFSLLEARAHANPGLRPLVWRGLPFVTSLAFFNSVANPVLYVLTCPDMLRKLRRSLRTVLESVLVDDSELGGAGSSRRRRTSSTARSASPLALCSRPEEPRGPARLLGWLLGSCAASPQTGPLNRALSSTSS
Assay: DP2/CRTH2 binding assay (radioligand binding using [3H]PGD2)
Conditions: [3H]PGD2, membranes of HEK293 cells stably expressing recombinant human DP2; read-out: hDP2 binding
Experimental: The ability of a compound to bind to the human DP2 receptor is assessed via a radioligand binding assay using [^3H]PGD2. HEK293 cells stably expressing recombinant human DP2 are resuspended in 10 mM Hepes, 7.4 containing 1 mM DTT, lysed and centrifuged at 75,000×g to pellet the membranes. The membranes are resuspended in 10 mM Hepes, 7.4 containing 1 mM DTT and 10% glycerol to approximately 5 mg protein/ml. Membranes (2-10 μg protein/well) are incubated in 96-well plates with 1 nM [^3H]PGD2 and test compound in Assay Buffer (50 mM Hepes, 10 mM MnCl2, 1 mM EDTA, plus or minus 0.2% human serum albumin, pH 7.4) for 60 minutes at room temperature. The reactions are terminated by rapid filtration through Whatman GF/C glass fibre filter plates. The filter plates were pre-soaked in 0.33% polythylenimine for 30 minutes at room temperature then washed in Wash Buffer (50 mM Hepes, 0.5 M NaCl pH 7.4) prior to harvesting. After harvesting, the filter plates are washed 3 times with 1 ml cold Wash Buffer then dried. Scintillant is then added to the plates and the radioactivity retained on the filters is determined on a Packard TopCount (Perkin Elmer). Specific binding is determined as total radioactive binding minus non-specific binding in the presence of 10 μM PGD2. IC50s were determined using GraphPad prism analysis of drug titration curves.

| Compound | IC50 [nM] |
| --- | --- |
| O=C(O)CCn1c2c(c3ccccc31)C[C@H](NS(=O)(=O)c1ccc(F)cc1)CC2 [Ramatroban, reference compound] | 300 to 1000 |
| C[C@H]1[C@@H](c2ccccc2)OC(=O)N1Cc1cc(C(F)(F)F)ccc1-c1cc(CC(=O)O)ccc1-c1cnn(C)c1 [Compound 1-21, [2′-((4S,5R)-4-Methyl-2-oxo-5-phenyl-oxazolidin-3-ylmethyl)-6-(1-methyl-1H-pyrazol-4-yl)-4′-trifluoromethyl-biphenyl-3-yl]-acetic acid] | 300 to 1000 |
| C[C@H]1[C@@H](c2ccccc2)OC(=O)N1Cc1cc(C(F)(F)F)ccc1-c1cccc(CC(=O)O)c1 [Compound 1-6, [2′-((4S,5R)-4-Methyl-2-oxo-5-phenyl-oxazolidin-3-ylmethyl)-4′-trifluoromethyl-biphenyl-3-yl]-acetic acid] | 300 to 1000 |
| C[C@H]1[C@@H](c2ccccc2)OC(=O)N1Cc1cc(C(F)(F)F)ccc1-c1ccc(F)c(CC(=O)O)c1 [Compound 1-7, [4-Fluoro-2′-((4S,5R)-4-methyl-2-oxo-5-phenyl-oxazolidin-3-ylmethyl)-4′-trifluoromethyl-biphenyl-3-yl]-acetic acid] | 300 to 1000 |
| C[C@H]1[C@@H](c2ccccc2)OC(=O)N1Cc1cc(C(F)(F)F)ccc1-c1cc(CC(=O)O)ccc1OCC(=O)O [Compound 1-16, [6-Carboxymethoxy-2′-((4S,5R)-4-methyl-2-oxo-5-phenyl-oxazolidin-3-ylmethyl)-4′-trifluoromethyl-biphenyl-3-yl]-acetic acid] | 300 to 1000 |
| COc1ccc(CC(=O)O)cc1-c1ccccc1CN1C(=O)O[C@H](c2ccccc2)[C@@H]1C [Compound 1-3, [6-Methoxy-2′-((4S,5R)-4-methyl-2-oxo-5-phenyl-oxazolidin-3-ylmethyl)-biphenyl-3-yl]-acetic acid] | 300 to 1000 |
| COc1ccc(CC(=O)O)cc1-c1ccc(C(F)(F)F)cc1CN1C(=O)O[C@@H](c2ccccc2)[C@H]1C [Compound 1-11, [6-Methoxy-2′-((4R,5S)-4-methyl-2-oxo-5-phenyl-oxazolidin-3-ylmethyl)-4′-trifluoromethyl-biphenyl-3-yl]-acetic acid] | > 1000 |
| COc1ccc(-c2cc(CC(=O)O)ccc2OC)c(CN2C(=O)O[C@H](c3ccccc3)[C@@H]2C)c1 [Compound 1-5, [6,4′-Dimethoxy-2′-((4S,5R)-4-methyl-2-oxo-5-phenyl-oxazolidin-3-ylmethyl)-biphenyl-3-yl]-acetic acid] | > 1000 |
| COc1ccc(CC(=O)O)cc1-c1ccc(C(F)(F)F)cc1CN1C(=O)NC(C)(c2ccccc2)C1=O (stereo not shown) [Compound 2-1, [6-Methoxy-2′-(4-methyl-2,5-dioxo-4-phenyl-imidazolidin-1-ylmethyl)-4′-trifluoromethyl-biphenyl-3-yl]-acetic acid] | > 1000 |
| COc1ccc(CC(=O)O)cc1-c1ccc(C(F)(F)F)cc1CN1C(=O)N(CC(=O)O)C(C)(c2ccccc2)C1=O (stereo not shown) [Compound 2-2, [2′-(3-Carboxymethyl-4-methyl-2,5-dioxo-4-phenyl-imidazolidin-1-ylmethyl)-6-methoxy-4′-trifluoromethyl-biphenyl-3-yl]-acetic acid] | > 1000 |
| COc1ccc(CC(=O)O)cc1-c1ccc(C(F)(F)F)cc1CN1CCN=C1C [Compound 3-1, [6-Methoxy-2′-(2-methyl-4,5-dihydro-imidazol-1-ylmethyl)-4′-trifluoromethyl-biphenyl-3-yl]-acetic acid] | > 1000 |

More lines, now with the values ahead:

| IC50 [nM] | Compound |
| --- | --- |
| < 300 | C[C@H]1[C@@H](c2ccccc2)OC(=O)N1Cc1cc(C(F)(F)F)ccc1-c1cc(CC(=O)O)ccc1-c1cccnc1 [Compound 1-20, [2′-((4S,5R)-4-Methyl-2-oxo-5-phenyl-oxazolidin-3-ylmethyl)-6-pyridin-3-yl-4′-trifluoromethyl-biphenyl-3-yl]-acetic acid] |
| < 300 | COc1ccc(-c2ccc(C(F)(F)F)cc2CN2CCOC2=O)cc1CC(=O)O [Compound 1-2, [4-Methoxy-2′-(2-oxo-oxazolidin-3-ylmethyl)-4′-trifluoromethyl-biphenyl-3-yl]-acetic acid] |
| < 300 | C[C@H]1[C@@H](c2ccccc2)OC(=O)N1Cc1cc(C(F)(F)F)ccc1-c1cc(CC(=O)O)ccc1OCc1ccc(Cl)cc1 [Compound 1-18, [6-(4-Chloro-benzyloxy)-2′-((4S,5R)-4-methyl-2-oxo-5-phenyl-oxazolidin-3-ylmethyl)-4′-trifluoromethyl-biphenyl-3-yl]-acetic acid] |
| < 300 | COc1ccc(C(C)C(=O)O)cc1-c1ccc(C(F)(F)F)cc1CN1C(=O)O[C@H](c2ccccc2)[C@@H]1C (stereo partly drawn) [Compound 1-12, 2-[6-Methoxy-2′-((4S,5R)-4-methyl-2-oxo-5-phenyl-oxazolidin-3-ylmethyl)-4′-trifluoromethyl-biphenyl-3-yl]-propionic acid] |
| < 300 | COc1ccc(CC(=O)O)cc1-c1ccc(F)cc1CN1C(=O)O[C@H](c2ccccc2)[C@@H]1C [Compound 1-4, [4′-Fluoro-6-methoxy-2′-((4S,5R)-4-methyl-2-oxo-5-phenyl-oxazolidin-3-ylmethyl)-biphenyl-3-yl]-acetic acid] |
| < 300 | C[C@H]1[C@@H](c2ccccc2)OC(=O)N1Cc1cc(C(F)(F)F)ccc1-c1cc(CC(=O)O)ccc1OCC1CC1 [Compound 1-15, [6-Cyclopropylmethoxy-2′-((4S,5R)-4-methyl-2-oxo-5-phenyl-oxazolidin-3-ylmethyl)-4′-trifluoromethyl-biphenyl-3-yl]-acetic acid] |
| < 300 | C[C@H]1[C@@H](c2ccccc2)OC(=O)N1Cc1cc(C(F)(F)F)ccc1-c1cc(CC(=O)O)ccc1-c1ccccc1 [Compound 1-19, [2″-((4S,5R)-4-Methyl-2-oxo-5-phenyl-oxazolidin-3-ylmethyl)-4″-trifluoromethyl-[1,1′;2′,1″]terphenyl-4′-yl]-acetic acid] |
| < 300 | COc1ccc(CC(=O)O)cc1-c1ccc(C(F)(F)F)cc1CN1C(=O)O[C@H](c2ccccc2)[C@@H]1C [Compound 1-10, [6-Methoxy-2′-((4S,5R)-4-methyl-2-oxo-5-phenyl-oxazolidin-3-ylmethyl)-4′-trifluoromethyl-biphenyl-3-yl]-acetic acid] |
| < 300 | COc1ccc(CC(=O)O)cc1-c1ccc(C(F)(F)F)cc1CN1CCOC1=O [Compound 1-1, [6-Methoxy-2′-(2-oxo-oxazolidin-3-ylmethyl)-4′-trifluoromethyl-biphenyl-3-yl]-acetic acid] |
| < 300 | C[C@H]1[C@@H](c2ccccc2)OC(=O)N1Cc1cc(C(F)(F)F)ccc1-c1cc(CC(=O)O)ccc1OCc1ccccc1 [Compound 1-17, [6-Benzyloxy-2′-((4S,5R)-4-methyl-2-oxo-5-phenyl-oxazolidin-3-ylmethyl)-4′-trifluoromethyl-biphenyl-3-yl]-acetic acid] |
| < 300 | C[C@H]1[C@@H](c2ccccc2)OC(=O)N1Cc1cc(C(F)(F)F)ccc1-c1cc(CC(=O)O)ccc1F [Compound 1-9, [6-Fluoro-2′-((4S,5R)-4-methyl-2-oxo-5-phenyl-oxazolidin-3-ylmethyl)-4′-trifluoromethyl-biphenyl-3-yl]-acetic acid] |
| < 300 | COc1ccc(-c2ccc(C(F)(F)F)cc2CN2C(=O)O[C@H](c3ccccc3)[C@@H]2C)cc1CC(=O)O [Compound 1-8, [4-Methoxy-2′-((4S,5R)-4-methyl-2-oxo-5-phenyl-oxazolidin-3-ylmethyl)-4′-trifluoromethyl-biphenyl-3-yl]-acetic acid] |
| < 300 | COc1ccc(CC(=O)O)cc1-c1ccc(C(F)(F)F)cc1CN1C(=O)O[C@H](c2cc(C(F)(F)F)cc(C(F)(F)F)c2)[C@@H]1C [Compound 1-13, {2′-[(4S,5R)-5-(3,5-Bis-trifluoromethyl-phenyl)-4-methyl-2-oxo-oxazolidin-3-ylmethyl]-6-methoxy-4′-trifluoromethyl-biphenyl-3-yl}-acetic acid] |
| < 300 | CCOc1ccc(CC(=O)O)cc1-c1ccc(C(F)(F)F)cc1CN1C(=O)O[C@H](c2ccccc2)[C@@H]1C [Compound 1-14, [6-Ethoxy-2′-((4S,5R)-4-methyl-2-oxo-5-phenyl-oxazolidin-3-ylmethyl)-4′-trifluoromethyl-biphenyl-3-yl]-acetic acid] |
